Like-named read-outs stand apart in the source and are kept apart here. Where a SMILES comes first, the peptide text is derived from it. Bridges are numbered along the chain shown (N, C = ends). Where no end group is shown, it is not given here.

In one assay the test system is Escherichia coli K-12. The format is cell-based. As to conditions: for IC100: E. coli K-12, drop plate method, 2 h treatment at room temperature, 5 mM HEPES-KOH pH 7.0. The protocol: (§1) Antimicrobial tests were performed using the drop plate method[12],[47]. Bacterial strains in the logarithmic phase (OD600 = 0.5–0.8) were diluted with 5 mM HEPES–KOH (pH 7.0) to a bacterial culture value of 1 × 10^6 CFU/mL. At OD600 = 0.1, the concentrations of S. meliloti and E. coli K-12 cells were 6.4 × 10^6 CFU/mL and 5.2 × 10^7 CFU/mL, respectively. Equal volumes of bacteria (S. meliloti or E. coli K-12) and NCR169 peptide or PMB were mixed and incubated at room temperature for 2 h. For antimicrobial tests against S. meliloti, 10 μL of each serially diluted mixture was spotted on MHB plates with 2.5 mM MgCl2, and 2.5 mM CaCl2, followed by incubation at 30 °C for 40 h. For antimicrobial tests against E. coli K-12, 10 μL of each mixture was spotted on Mueller Hinton Broth (MHB; MilliporeSigma, Burlington, MA, USA) plates followed by incubation at 30 °C for 13 h.
(§2) To estimate survival rate, the peptide-treated bacterial mixtures were serially diluted with the buffer before spotting on the plate. Bacterial survival rates were calculated using the colony numbers of each bacterial strain with or without peptide treatment. All experiments were repeated at least four times.
(§3) Supplementary Table S2. Antimicrobial activities of NCR169 peptides against E. coliK-12 and S. meliloti.
(§4) Peptide IC50 (μM)* IC100 (μM)
(§5) E. coli K-12 S. meliloti E. coli K-12 S. meliloti
(§6) IC50: 50% inhibitory concentration (Calculated using “Dose-response curve” fitting)

A further assay deals with Sinorhizobium meliloti. Format: cell-based. As to conditions: for IC100: drop plate method, 2 h treatment at room temperature, 5 mM HEPES-KOH pH 7.0. The procedure: as §1, §2, §3, §4, §5, §6
The nature of assay [1]: Liposome sedimentation (binding) assay. The protocol:
Figure 3 NCR169 binds to the bacterial phospholipid. (A) Circular dichroism (CD) spectra of NCR169 peptides (NCR169-ox1 and -ox2). NCR169 peptides (20 μM) were dissolved in the following solvents: water (No additives), 2 mM DMPC liposomes, 2 mM DMPG liposomes or 30% 2,2,2-trifluoroethanol (TFE). (B) The results of liposome binding assays. The NCR169 peptide (20 μM) was incubated with buffer (No lipid), 2 mM DMPC liposomes, or 2 mM DMPG liposomes. After incubation at room temperature for 30 min, the mixture was ultra-centrifuged at 200,000×g. The supernatant and pellet fractions were analyzed by Tricine-SDS-PAGE. The no lipid sample before ultra-centrifugation was used as the input.
The phospholipids DMPC and DMPG were purchased from Avanti Polar Lipids (Alabaster, AL, USA). An appropriate amount of phospholipid was dissolved in chloroform and dried under vacuum for 1 h. The lipid film was suspended in water, vortexed, and sonicated for 30 min to form the liposomes.
The assay was carried out as described previously. Briefly, equal volumes of NCR169 peptide (20 μM) and liposomes (2 mM) were mixed in assay buffer (20 mM HEPES, 150 mM NaCl, pH 7.0) and incubated for 30 min at room temperature, followed by ultracentrifugation at 200,000×g for 15 min at 20 °C. After centrifugation, the supernatant was collected, and the pellet was dissolved in the same volume of assay buffer containing 0.2% Triton X-100. The supernatant and pellet fractions were subjected to Tricine-SDS-PAGE, and peptides were detected by Coomassie Brilliant Blue staining.
Supplementary Figure S11. NCR 169 M binds to the bacterial phospholipid. (A) Circular dichroism (CD) spectra of NCR169M (20 μM) in water (No additive), 2 mM dimyristoylphosphatidylcholine (DMPC) liposomes, 2 mM dimyristoylphosphatidylglycerol (DMPG) liposomes or 30% 2,2,2-trifluoroethanol (TFE). (B) The result of liposome binding assay. NCR169M (20 μM) was incubated with buffer (No lipid),2 mM DMPC liposomes, or 2 mM DMPG liposomes . After incubation at room temperature for 30 min, the mixture was ultra-centrifuged at 200,000 × g. The supernatant and pellet fractions were analyzed by Tricine-SDS-PAGE. The no lipidsample before ultra-centrifugation was used as the input.
(also on this page, place not known: [θ] (103 deg cm2 dmol-1) markerkDa input No lipid sup ppt sup ppt sup ppt NCR169M lipid), DMPC 2 DMPG liposomes. lipid sample)
(1 picture or pasted object on this page, not shown here)
Supplementary Figure S12. The results of liposome binding assays. (A) NCR169-derived peptide (10 μM) was incubated with buffer (No lipid), 1 mM DMPC liposomes, 1 mM DMPG liposomes. After incubation at room temperature for 30 min, the mixture was ultra-centrifuged at 200,000 × g. The supernatant and pellet fractions were analyzed by Tricine-SDS-PAGE. The no lipid sample before ultra-centrifugation was used as the input. Arrows indicate weak bands. (B) […]

Setting [2] is: NCR169-derived peptide 10 μM, 1 mM DMPG liposomes, 30 min room temperature, 200,000×g, Tricine-SDS-PAGE.

On to `CC[C@H](C)[C@H](NC(=O)[C@H](CCCCN)NC(=O)[C@H](Cc1ccccc1)NC(=O)[C@H](CC(C)C)NC(=O)[C@@H]1CCCN1C(=O)[C@H](CCCCN)NC(=O)[C@H](CCCCN)NC(=O)[C@H](CO)NC(=O)[C@H](CCCCN)NC(=O)[C@H](Cc1ccc(O)cc1)NC(=O)CN)C(=O)N[C@@H](Cc1c[nH]c2ccccc12)C(=O)N[C@@H](CCCCN)C(=O)N[C@H]1CSSC[C@@H](C(=O)N[C@H](C(=O)N[C@@H](CC(C)C)C(=O)N[C@@H](Cc2c[nH]c3ccccc23)C(=O)N[C@@H](Cc2ccc(O)cc2)C(=O)N[C@@H](CCCCN)C(=O)O)C(C)C)NC(=O)[C@H](C(C)C)NC(=O)[C@H](CC(N)=O)NC(=O)[C@H](CCC(=O)O)NC(=O)[C@H](C(C)C)NC1=O` [NCR169CL-ox] (H-GYKSKKPLFKIWKCVENVCVLWYK-OH; disulfide 14-19), for which the figures for the IC100 in the assay with Escherichia coli K-12 and in the assay with Sinorhizobium meliloti (S. meliloti) were 0.5 µM and over 128 µM, respectively. Besides, the IC50 was 140 nM with Escherichia coli K-12 (K-12, 2 h, pH 7) and 570 nM in the assay on Sinorhizobium meliloti (2 h, pH 7). For the same molecule, in assay [1] (setting [2]), the “Binding to DMPG liposomes” value is recorded as “bound to DMPG liposomes”.
As to YKSKKPLFKIWK [NCR169M], the IC100 in the assay on Escherichia coli K-12 is 0.5 µM; with Sinorhizobium meliloti (S. meliloti) it was 2 µM. For the same molecule, the IC50 was 83 nM in the assay on Escherichia coli K-12 (K-12, 2 h, pH 7) and 240 nM in the assay with Sinorhizobium meliloti (2 h, pH 7). In assay [1] (peptide 20 μM, 2 mM DMPG liposomes, 20 mM HEPES, 150 mM NaCl, pH 7.0, 30 min room temperature, 200,000×g, supernatant and pellet by Tricine-SDS-PAGE), the “Binding to DMPG liposomes” value is given as “bound to DMPG liposomes”.
On to `CC[C@H](C)[C@H](NC(=O)[C@H](CCCCN)NC(=O)CN)C(=O)N[C@@H](Cc1c[nH]c2ccccc12)C(=O)N[C@@H](CCCCN)C(=O)N[C@H]1CSSC[C@@H](C(=O)N[C@H](C(=O)N[C@@H](CC(C)C)C(=O)N[C@@H](Cc2c[nH]c3ccccc23)C(=O)N[C@@H](Cc2ccc(O)cc2)C(=O)N[C@@H](CCCCN)C(=O)O)C(C)C)NC(=O)[C@H](C(C)C)NC(=O)[C@H](CC(N)=O)NC(=O)[C@H](CCC(=O)O)NC(=O)[C@H](C(C)C)NC1=O` [NCR169CS-ox] (H-GKIWKCVENVCVLWYK-OH; disulfide 6-11), for which the results for the IC100 with Escherichia coli K-12 and in the assay on Sinorhizobium meliloti (S. meliloti) were 64 µM and over 128 µM, respectively. The IC50 with Escherichia coli K-12 (K-12, 2 h, pH 7) stood at 5600 nM; in the assay with Sinorhizobium meliloti (2 h, pH 7), 45000 nM. The “Binding to DMPG liposomes” value in assay [1] (setting [2]) is listed as “bound to DMPG liposomes”.
Consider Polymyxin B [PMB, reference compound], for which the IC50 was 18 nM in the assay with Escherichia coli K-12 (E. coli K-12, 1 × 10^6 CFU/mL in 5 mM HEPES-KOH pH 7.0, 2 h at room temperature, spotted on MHB plates, 30 °C 13 h, survival rate from colony numbers, dose-response curve fitting, repeated at least four times, read-out: IC50 (50% inhibitory concentration)); 92 nM with Sinorhizobium meliloti (S. meliloti, 1 × 10^6 CFU/mL in 5 mM HEPES-KOH pH 7.0, 2 h at room temperature, spotted on MHB plates with 2.5 mM MgCl2 and 2.5 mM CaCl2, 30 °C 40 h, dose-response curve fitting, repeated at least four times, read-out: IC50 (50% inhibitory concentration)). The IC100 with Escherichia coli K-12 stood at 0.031 µM; with Sinorhizobium meliloti (S. meliloti), 0.25 µM.
`CC[C@H](C)[C@@H]1NC(=O)CNC(=O)[C@@H](NC(=O)[C@H](Cc2ccc(O)cc2)NC(=O)[C@H](CCCCN)NC(=O)[C@@H](NC(=O)[C@H](Cc2c[nH]cn2)NC(=O)CNC(=O)[C@@H](NC(=O)[C@H](CC(=O)O)NC(=O)[C@H](CCC(=O)O)NC(=O)CN)[C@@H](C)CC)[C@@H](C)CC)CSSC[C@@H](C(=O)N[C@@H](Cc2ccc(O)cc2)C(=O)O)NC(=O)[C@H](CC(=O)O)NC(=O)[C@H](CC(=O)O)NC(=O)[C@H](C(C)C)NC1=O` [NCR169N-ox] (H-GEDIGHIKYCGIVDDCY-OH; disulfide 10-16): the IC100 with Escherichia coli K-12 and in the assay on Sinorhizobium meliloti (S. meliloti) was over 128 µM throughout. The “Antimicrobial activity (in words)” value with Escherichia coli K-12 (E. coli K-12, various peptide concentrations) is recorded as “no antimicrobial activity”; with Sinorhizobium meliloti (S. meliloti, various peptide concentrations), “no antimicrobial activity”. In assay [1] (setting [2]), the “Binding to DMPG liposomes” value is recorded as “did not”.

The values are drawn from publication PMC8110993, “Structure and antimicrobial activity of NCR169, a nodule-specific cysteine-rich peptide of Medicago truncatula” (Scientific Reports, 2021).
